Experimental data taken from ChEMBL document CHEMBL1275351, “Novel spirotetracyclic zwitterionic dual H(1)/5-HT(2A) receptor antagonists for the treatment of sleep disorders” (J Med Chem, 2010).

Each compound was assayed against Histamine H1 receptor (Homo sapiens, UniProt P35367) (assay: Antagonist activity against human histamine H1 receptor expressed in CHO cells by FLIPR assay).
Format: functional, cell-based

Chain of Histamine H1 receptor (P35367 whole entry): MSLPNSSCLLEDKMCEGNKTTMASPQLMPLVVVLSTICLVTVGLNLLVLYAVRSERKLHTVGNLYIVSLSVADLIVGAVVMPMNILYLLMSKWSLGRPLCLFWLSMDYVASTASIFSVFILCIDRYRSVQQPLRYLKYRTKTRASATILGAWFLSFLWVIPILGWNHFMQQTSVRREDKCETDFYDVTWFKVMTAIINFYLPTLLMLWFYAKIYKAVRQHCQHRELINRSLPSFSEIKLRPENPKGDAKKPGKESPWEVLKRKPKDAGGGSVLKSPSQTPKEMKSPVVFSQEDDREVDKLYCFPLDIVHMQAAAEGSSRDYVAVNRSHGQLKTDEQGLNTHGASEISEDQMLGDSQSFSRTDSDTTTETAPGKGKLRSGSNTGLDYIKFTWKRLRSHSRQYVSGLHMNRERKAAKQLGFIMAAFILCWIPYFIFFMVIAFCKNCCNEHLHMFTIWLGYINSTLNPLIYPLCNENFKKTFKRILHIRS

Compound	Ki
O=C(O)C1(O)CCN(C2CCC3(Cc4ccccc4Cc4ccccc43)C2)CC1 (stereo not drawn)	50.1 nM
CC1(C(=O)O)CCN(C2CCC3(Cc4ccccc4Cc4ccccc43)C2)CC1 (stereo not drawn)	50.1 nM
O=C(O)C1=CCN(C2CCC3(Cc4ccccc4Cc4ccccc43)C2)CC1 (stereo not drawn)	39.8 nM
O=C(O)C1=CCCN(C2CCC3(Cc4cc(F)ccc4Cc4ccccc43)C2)C1 (stereo not drawn)	39.8 nM
O=C(O)C1(F)CCCN(C2CC[C@]3(Cc4ccccc4Cc4ccccc43)C2)C1 (stereo partly drawn)	794 nM
O=C(O)C1=CCCN(C2CC[C@@]3(Cc4ccccc4Cc4ccccc43)C2)C1 (stereo partly drawn)	158 nM
O=C(O)C1CN(C2CC[C@]3(Cc4ccccc4Cc4ccccc43)C2)CCO1 (stereo partly drawn)	63.1 nM

These compounds were tested against 5-hydroxytryptamine receptor 2A (Homo sapiens, UniProt P28223) (assay: Antagonist activity at human 5HT2A receptor expressed in HEK cells assessed as inhibition of intracellular calcium accumulation by aequorin assay).
Format: functional, cell-based, HEK293

Chain of 5-hydroxytryptamine receptor 2A (P28223 whole entry): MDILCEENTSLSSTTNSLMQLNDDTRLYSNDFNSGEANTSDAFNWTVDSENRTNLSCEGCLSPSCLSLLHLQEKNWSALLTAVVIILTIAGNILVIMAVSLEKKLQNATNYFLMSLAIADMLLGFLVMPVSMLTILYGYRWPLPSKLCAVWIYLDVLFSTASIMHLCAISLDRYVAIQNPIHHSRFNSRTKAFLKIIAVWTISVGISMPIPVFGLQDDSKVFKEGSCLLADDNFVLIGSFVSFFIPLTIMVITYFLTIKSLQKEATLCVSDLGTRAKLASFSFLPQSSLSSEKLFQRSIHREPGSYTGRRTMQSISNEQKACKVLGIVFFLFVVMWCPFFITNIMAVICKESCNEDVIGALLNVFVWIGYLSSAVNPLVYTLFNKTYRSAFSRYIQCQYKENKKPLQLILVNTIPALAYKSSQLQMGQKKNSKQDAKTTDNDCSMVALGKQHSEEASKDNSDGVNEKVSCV

Compound	Ki
O=C(O)C1(O)CCN(C2CCC3(Cc4ccccc4Cc4ccccc43)C2)CC1 (stereo not drawn)	100 nM
CC1(C(=O)O)CCN(C2CCC3(Cc4ccccc4Cc4ccccc43)C2)CC1 (stereo not drawn)	39.8 nM
O=C(O)C1=CCN(C2CCC3(Cc4ccccc4Cc4ccccc43)C2)CC1 (stereo not drawn)	79.4 nM
O=C(O)C1=CCCN(C2CCC3(Cc4cc(F)ccc4Cc4ccccc43)C2)C1 (stereo not drawn)	> 759 nM
O=C(O)C1(F)CCCN(C2CC[C@]3(Cc4ccccc4Cc4ccccc43)C2)C1 (stereo partly drawn)	79.4 nM
O=C(O)C1=CCCN(C2CC[C@@]3(Cc4ccccc4Cc4ccccc43)C2)C1 (stereo partly drawn)	3980 nM
O=C(O)C1CN(C2CC[C@]3(Cc4ccccc4Cc4ccccc43)C2)CCO1 (stereo partly drawn)	100 nM

These compounds were tested against 5-hydroxytryptamine receptor 2B (Homo sapiens, UniProt P41595) (assay: Antagonist activity at human 5HT2B receptor expressed in human SH-SY5Y cells by FLIPR assay).
Chain of 5-hydroxytryptamine receptor 2B (P41595 whole entry): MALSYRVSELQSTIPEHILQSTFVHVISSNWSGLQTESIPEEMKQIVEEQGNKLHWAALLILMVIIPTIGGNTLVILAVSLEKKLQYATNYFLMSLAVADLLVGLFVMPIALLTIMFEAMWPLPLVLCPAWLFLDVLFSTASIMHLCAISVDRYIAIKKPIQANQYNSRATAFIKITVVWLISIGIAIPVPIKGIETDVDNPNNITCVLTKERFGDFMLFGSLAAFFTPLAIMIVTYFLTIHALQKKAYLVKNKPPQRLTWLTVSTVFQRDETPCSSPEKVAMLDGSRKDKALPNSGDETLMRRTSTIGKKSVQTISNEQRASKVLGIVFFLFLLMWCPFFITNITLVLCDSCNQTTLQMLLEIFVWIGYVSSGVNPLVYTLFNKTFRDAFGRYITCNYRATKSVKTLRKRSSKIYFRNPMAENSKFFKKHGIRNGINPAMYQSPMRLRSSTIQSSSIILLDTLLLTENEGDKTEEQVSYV

Compound	Ki
O=C(O)C1(O)CCN(C2CCC3(Cc4ccccc4Cc4ccccc43)C2)CC1 (stereo not drawn)	251 nM
CC1(C(=O)O)CCN(C2CCC3(Cc4ccccc4Cc4ccccc43)C2)CC1 (stereo not drawn)	3.16 nM
O=C(O)C1=CCN(C2CCC3(Cc4ccccc4Cc4ccccc43)C2)CC1 (stereo not drawn)	> 2000 nM
O=C(O)C1=CCCN(C2CCC3(Cc4cc(F)ccc4Cc4ccccc43)C2)C1 (stereo not drawn)	> 2000 nM
O=C(O)C1(F)CCCN(C2CC[C@]3(Cc4ccccc4Cc4ccccc43)C2)C1 (stereo partly drawn)	> 2000 nM
O=C(O)C1=CCCN(C2CC[C@@]3(Cc4ccccc4Cc4ccccc43)C2)C1 (stereo partly drawn)	> 2000 nM
O=C(O)C1CN(C2CC[C@]3(Cc4ccccc4Cc4ccccc43)C2)CCO1 (stereo partly drawn)	> 2000 nM

These compounds were tested against T1, 5-hydroxytryptamine receptor 2C (Homo sapiens, UniProt P28335) (assay: Antagonist activity at human 5HT2C receptor expressed in human SH-SY5Y cells by FLIPR assay).
T1 sequence (P28335 whole entry): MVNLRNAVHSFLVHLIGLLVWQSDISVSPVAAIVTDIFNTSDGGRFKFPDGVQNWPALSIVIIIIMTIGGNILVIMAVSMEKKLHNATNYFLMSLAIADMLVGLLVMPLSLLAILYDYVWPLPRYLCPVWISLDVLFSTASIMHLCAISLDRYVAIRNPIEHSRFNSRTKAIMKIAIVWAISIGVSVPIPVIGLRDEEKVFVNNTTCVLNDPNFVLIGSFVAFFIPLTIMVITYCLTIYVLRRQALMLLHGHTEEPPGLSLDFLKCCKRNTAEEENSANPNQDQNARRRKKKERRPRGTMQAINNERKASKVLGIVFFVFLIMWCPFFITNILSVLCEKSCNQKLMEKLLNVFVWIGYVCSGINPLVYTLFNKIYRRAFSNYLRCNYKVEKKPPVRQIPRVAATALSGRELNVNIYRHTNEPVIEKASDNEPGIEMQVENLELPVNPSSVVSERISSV
Format: functional, cell-based

Compound	Ki
O=C(O)C1(O)CCN(C2CCC3(Cc4ccccc4Cc4ccccc43)C2)CC1 (stereo not drawn)	126 nM
CC1(C(=O)O)CCN(C2CCC3(Cc4ccccc4Cc4ccccc43)C2)CC1 (stereo not drawn)	15.8 nM
O=C(O)C1=CCN(C2CCC3(Cc4ccccc4Cc4ccccc43)C2)CC1 (stereo not drawn)	200 nM
O=C(O)C1=CCCN(C2CCC3(Cc4cc(F)ccc4Cc4ccccc43)C2)C1 (stereo not drawn)	316 nM
O=C(O)C1(F)CCCN(C2CC[C@]3(Cc4ccccc4Cc4ccccc43)C2)C1 (stereo partly drawn)	1580 nM
O=C(O)C1=CCCN(C2CC[C@@]3(Cc4ccccc4Cc4ccccc43)C2)C1 (stereo partly drawn)	> 2000 nM
O=C(O)C1CN(C2CC[C@]3(Cc4ccccc4Cc4ccccc43)C2)CCO1 (stereo partly drawn)	316 nM
